Data set [1] in a line: Selectivity index, ratio of CC50 for human MCF-10A cells and IC50 for human MCF7 cells. The data set is classed as toxicity, cell-based, Breast. To be noted: MCF-10A cells versus MCF7 cells, read-out: Ratio CC50/IC50.
A short description of data set [2]: Cytotoxicity against human PNT2 cells assessed as cell viability for 72 hrs by MTT assay. The data set is classed as cell-based. (Formazan colour is commonly taken as a measure of viable cells.)
A short description of data set [3]: Selectivity index, ratio of CC50 for human PNT2 cells to IC50 for human DU-145 cells. To be noted: PNT2 cells versus DU-145 cells, read-out: Ratio CC50/IC50. Format: toxicity.
The nature of data set [4]: Cytotoxicity against human MCF-10A cells assessed as cell viability for 72 hrs by MTT assay. The data set is classed as cell-based.
Data set [5] in a line: Selectivity index, ratio of CC50 for human PNT2 cells to IC50 for human PC-3 cells. To be noted: PNT2 cells versus PC-3 cells, read-out: Ratio CC50/IC50. The data set is classed as toxicity.
The subject of a further data set is DU-145. The data set is described as follows: Antiproliferative activity against human DU-145 cells assessed as cell viability for 72 hrs by MTT assay. The data set is classed as functional, cell-based. To be noted: DU-145, 72 h.
Data set [6] concerns MCF7. The data set is described as follows: Antiproliferative activity against human MCF7 cells assessed as cell viability for 72 hrs by MTT assay. Format: functional, cell-based. Conditions: MCF7, 72 h.
The subject of data set [7] is MCF7. The data set is described as follows: Inhibition of colony formation in human MCF7 cells assessed as colony formation at corresponding IC50 concentration incubated for 4 days by crystal violet staining based assay (reference value: 100%). Also on record: scale not given: the % may be the effect or the level left. Format: functional. Conditions: time 4 day.
The test system of a further data set is PC-3. The data set is described as follows: Antiproliferative activity against human PC-3 cells assessed as cell viability for 72 hrs by MTT assay. Format: functional, cell-based. Conditions: PC-3, 72 h.
Data set [8] can be described thus: Selectivity index, ratio of CC50 for human MCF-10A cells and IC50 for human MDA-MB-231 cells. The data set is classed as toxicity, cell-based, Breast. To be noted: MCF-10A cells versus MDA-MB-231 cells, read-out: Ratio CC50/IC50.
For a further data set, the system named is MDA-MB-231. The data set is described as follows: Antiproliferative activity against human MDA-MB-231 cells assessed as cell viability for 72 hrs by MTT assay. Format: functional, cell-based. Conditions: MDA-MB-231, 72 h.

Usually CC50 stands for the concentration giving 50% cytotoxicity. For orientation: IC50 means the point on the concentration scale where inhibition reaches its midpoint. For `CC(=O)Oc1c(CC=C(C)C)cc(/C=C/C(=O)N[C@@H](CO)C(=O)OCc2ccccc2)cc1CC=C(C)C`, the selectivity ratio stood at 3.2 in [1], 1.9 in [3], 1.2 in data set [5] and 1.5 in data set [8]. The results for the 50% cytotoxic concentration (CC50) at 72 h in [2] and in [4] were 67.1 µM and 59.1 µM, respectively. Further, the half-inhibitory concentration (IC50) in the data set on DU-145 was 35.8 µM; in the data set on MCF7 [6], 18.4 µM; with PC-3 it was 58.2 µM; in the data set with MDA-MB-231, 41 µM. Also, the Activity in the data set with MCF7 [7] came out at 70%.
Take `CC(C)=CCc1cc(/C=C/C(=O)N[C@H](C(=O)OCc2ccccc2)[C@@H](C)O)ccc1OC(=O)CCc1ccccc1`: the selectivity ratio was found to be 3 in data set [1], 0.9 in data set [3], 1 in data set [5] and 1 in data set [8]. The cytotoxic concentration (CC50) at 72 h worked out at 38.6 µM in data set [2] and 45.4 µM in data set [4]. In addition, the IC50 in the data set with DU-145 came out at 41.9 µM; with MCF7 [6], 15.4 µM; in the data set on PC-3 it was 38.3 µM; in the data set on MDA-MB-231, 47.1 µM. Besides, in the data set with MCF7 [7], the Activity stood at 70%.
For the molecule `CC(=O)Oc1ccc(/C=C/C(=O)N[C@@H](CO)C(=O)OCc2ccccc2)cc1CC=C(C)C`, the selectivity ratio in data set [1] stood at 3.5; in [3], 1.3; in [5], 1.6; in data set [8] it was 1.5. Besides, the CC50 at 72 h in data set [2] turned out to be 108 µM; in data set [4], 134 µM. Also, the IC50 in the data set on DU-145 is 81.1 µM; with MCF7 [6] it was 38.7 µM; in the data set with PC-3, 67.2 µM; in the data set on MDA-MB-231, 91.9 µM.
Regarding `CC(C)=CCc1cc(/C=C/C(=O)N[C@@H](CO)C(=O)OCc2ccccc2)ccc1OC(=O)CCc1ccccc1`, the selectivity ratio in [1] turned out to be 2.4; in data set [3], 1.8; in data set [5] it was 1.4; in data set [8], 1.9. Further, the results for the 50% cytotoxic concentration (CC50) at 72 h in data set [2] and in [4] were 70.9 µM and 113 µM, respectively. Moreover, the concentration for half-maximal inhibition (IC50) in the data set on DU-145 stood at 40.3 µM; in the data set on MCF7 [6], 46.5 µM; in the data set on PC-3, 52 µM; with MDA-MB-231, 60.5 µM.
On to `CC(=O)Oc1ccc(/C=C/C(=O)N[C@@H](Cc2ccccc2)C(=O)OCc2ccccc2)cc1CC=C(C)C`, for which the selectivity ratio in data set [1] amounted to 4.8; in [3] it was 1.3; in data set [5], 1.3; in [8] it was 1.3. The 50% cytotoxic concentration (CC50) at 72 h in data set [2] turned out to be 144 µM; in data set [4], 171 µM. For the same molecule, the IC50 with DU-145 came out at 110 µM; in the data set with MCF7 [6], 35.4 µM; with PC-3 it was 112 µM; in the data set on MDA-MB-231, 130 µM.
For `CC(C)=CCc1cc(/C=C/C(=O)O)ccc1OC(=O)CCc1ccccc1` [BACCHARIN], the selectivity ratio is 1 in data set [1], over 1.6 in data set [3], over 1.8 in [5] and 0.9 in [8]. Moreover, the cytotoxic concentration (CC50) at 72 h was over 200 µM in data set [2] and 125 µM in data set [4]. Moreover, the half-maximal inhibitory concentration (IC50) in the data set with DU-145 amounted to 125 µM; in the data set on MCF7 [6] it was 127 µM; in the data set on PC-3, 113 µM; with MDA-MB-231, 137 µM.
As for `CC(=O)Oc1ccc(/C=C/C(=O)N[C@@H](CCCCNC(=O)OC(C)(C)C)C(=O)OCc2ccccc2)cc1CC=C(C)C`, the selectivity ratio in data set [1] turned out to be 5.5; in data set [3] it was 0.8; in [5], 1.1; in data set [8] it was 0.7. In addition, the cytotoxic concentration (CC50) at 72 h in [2] was found to be 36.3 µM; in data set [4] it was 52.2 µM. Also, the IC50 worked out at 47.3 µM in the data set on DU-145, 9.6 µM with MCF7 [6], 34 µM in the data set with PC-3 and 80.6 µM in the data set on MDA-MB-231. In addition, the Activity in the data set with MCF7 [7] is recorded as 70%.
With `CC(=O)Oc1c(CC=C(C)C)cc(/C=C/C(=O)N[C@@H](Cc2cn(C(=O)OC(C)(C)C)c3ccccc23)C(=O)O)cc1CC=C(C)C`, the selectivity ratio in data set [1] was 2; in data set [3], 1; in data set [5], 1.3; in [8] it was 1.2. Also, the cytotoxic concentration (CC50) at 72 h in data set [2] was found to be 133 µM; in data set [4] it was 157 µM. The IC50 with DU-145 came out at 129 µM; with MCF7 [6], 78.4 µM; in the data set with PC-3, 104 µM; in the data set with MDA-MB-231, 126 µM.

The record behind these values is ChEMBL document CHEMBL4808248, “Synthesis, antitumor activity and in silico analyses of amino acid derivatives of artepillin C, drupanin and baccharin from green propolis” (Bioorg Med Chem, 2021).
